We go through 1 compound from PMC10787067, “EBF2 Links KMT2D‐Mediated H3K4me1 to Suppress Pancreatic Cancer Progression via Upregulating KLLN” (Advanced Science, 2023).

The test system of assay [1] is KLLN. The experiment in a line: qPCR of KLLN mRNA in SW1990 cells. The format is cell-based, Human. The note with it: vs negative control, p < 0.01, Student's t-test, concentration not given, Figure 4E. As to the method: Total RNA was extracted from cultured cells using RNAiso plus (Takara, Japan). cDNA was synthesized from every 1 µg of total RNA in reverse transcription reactions with Hifair III 1st Strand cDNA Synthesis SuperMix for qPCR (Cat No. 11 141; Yeasen, Shanghai, China). qPCR was performed with Hieff qPCR SYBR Green Master Mix (Yeasen) using a Roche LightCycler 96 Real‐Time PCR System. Cycling conditions were set at 94 °C for 15 s, 60 °C for 1 min, and 72 °C for 30 s. Each reaction was performed in triplicate. The primer sequences were as follows: KMT2D‐F: 5′‐[…]‐3′; KMT2D‐R: 5′‐[…]‐3′; EBF2‐F: 5′‐[…]‐3′; EBF2‐R: 5′‐[…]‐3′; KLLN‐F: 5′‐[…]‐3’; KLLN‐R: 5′‐[…]‐3′. β‐actin‐F: 5′‐[…]‐3′; β‐actin‐R: 5′‐[…]‐3′.
(In general: Real-time PCR tracks product formation cycle by cycle.)

In assay [2] the test system is KLLN. Briefly: Western blot of KLLN in SW1990 cells. Format: cell-based, Human. As to the method:
SW1990 and PANC‐1 cells were isolated using lysate buffer containing protease inhibitors. Samples containing equal amounts of protein were separated by SDS‐PAGE. After electrophoresis, the proteins were transferred to a PVDF membrane (Millipore, Billerica, MA, USA) and blocked with 5% skim milk for 2 h at room temperature. An overnight incubation of membranes was made at 4 °C with primary antibodies against KMT2D (1:1000; Affinity, China), EBF2 (1:1000; Affinity), and KLLN (1:1000; Abcam, USA). After washing with 1× TBST for three times, a 2 h incubation of membranes was implemented with horseradish peroxidase (HRP)‐gemeled Affinipure Goat Anti‐Rabbit IgG (H + L) (1:10000; ProteinTech, China) or Peroxidase‐gemeled Affinipure Goat Anti‐Mouse IgG (H+L) (1:10000; ProteinTech) at room temperature. Proteins were visualized by chemiluminescence using an ECL kit (Thermo Fisher).
(A western blot detects proteins with antibodies after separation by electrophoresis.)

Another assay deals with H3K4me1. The experiment in a line: Western blot of H3K4me1 in SW1990 cells. The format is cell-based, Human.
The test system of assay [3] is SW1990 cells. Briefly: Colony-formation and CCK-8 proliferation, SW1990. The format is cell-based, Human. As to conditions: vs Vehicle, p < 0.01, Figure 5F,G. As to the method: (§1) Cell proliferation was determined by Cell Counting Kit‐8 (CCK‐8, Yeasen) and EdU Cell Proliferation Assay kit (Ribobio, Guangzhou, China). Colony formation was observed by staining with 0.1% crystal violet (Sangon Biotechnologies Inc., Shanghai, China). Cell migration and invasion were assessed using […] pore Transwell chambers with (for invasion assay) or without Matrigel (for migration assay). For migration assay, 5 × 10^4 SW1990 or 3 × 10^4 PANC‐1 cells were seeded into the upper chamber of the Transwell apparatus (Corning, USA) in serum‐free medium, and the medium supplemented with 10% FBS was added to the bottom chamber. For invasion assay, 10 × 10^4 SW1990 or 6 × 10^4 PANC‐1 cells were seeded into the upper Corning BioCoat Matrigel invasion chamber. After 24 h, the cells on the upper surface that had not passed through the polycarbonate filter were removed using a moistened cotton swab; the cells having migrated to the lower membrane surface were fixed in 100% methanol for 10 min, stained with 0.4% crystal violet for 15 min, and counted under a microscope (Nikon, Japan) at ×100 magnification. The cells were manually counted using Image J software. Three independent experiments were performed.

The subject of another assay is SW1990‐luc xenografts. Briefly: SW1990-luc xenografts in BALB/c nude mice. The format is in vivo, Human (xenograft in BALB/c nude mice). As to conditions: n = 5, p < 0.01, two-way ANOVA, dose not given, Figure 5I-K. As to the method: BALB/c nude mice (4 weeks old) were purchased from the Animal Core Facility of Nanjing Medical University. Every 1 × 10^6 SW1990‐luc cells (SW1990 cells labeled with luciferase) were suspended in 100 µL of PBS and Matrigel (Corning) mixture, then subcutaneously injected into the right forelimb of nude mice. The length and width of tumor were measured every 2 or 3 days. Tumor volume was calculated using the formula: Volume = 0.5 × length × width^2. Luciferase signals in nude mice were measured at the first and fourth week after injection. The mice were sacrificed at 30 days for in vivo proliferation assay. Mice were anesthetized with isoflurane gas and sacrificed by cervical dislocation. Tumor tissues of these mice were collected for further analyses. Luciferase signals from D‐luciferin (Cat No. MB1834; MeilunBio, Dalian, China) were measured using IVIS Spectrum (PerkinElmer, USA) at indicated concentrations. The luciferase signal activity was quantitated using the software provided by the manufacturer.
Background: Xenograft models place foreign cells or tissue in a host animal.

A further assay deals with EBF2. The experiment in a line: Co-IP with H3K4me1 antibodies from GSK-LSD1-treated SW1990 cell lysates. Format: cell-based, Human. As to conditions: vs vehicle, Figure 5P. As to the method: Co‐immunoprecipitation assay was performed as described previously.^[ [61] ^] Briefly, SW1990 cells were transfected with indicated constructs or treated with GSK‐LSD1, washed with cold phosphate buffered saline (PBS), and lysed with cold cell lysis buffer. Then, the lysates were incubated with appropriate specific antibodies or normal rabbit IgG at 4 °C overnight in constant rotation, followed by the addition of protein A/G Sepharose beads and incubation for 2 h at 4 °C. The beads were then washed five times by the lysis buffer. Bead‐bound proteins were resolved by SDS‐PAGE and detected by immunoblotting using indicated antibodies.

Assay [4] deals with SW1990 cells. Briefly: KLLN rescue experiments (CCK-8, colony-formation, Transwell), SW1990. As to conditions: p < 0.01, Figure 5Q-S. Format: cell-based, Human. As to the method: as §1
Another assay deals with KDM1A/LSD1. The note with it: cited from earlier work. The source says:
Next, we sought to elucidate the roles of KMT2D‐ and EBF2‐regulated H3K4me1 through profiling the gene transcription in PDAC cells with H3K4me1 activation by GSK‐LSD1 or EBF2 overexpression (EBF2‐OE). […] These differentially expressed genes (DEGs) were overlapped genes between EBF2‐OE and GSK‐LSD1‐treated SW1990 cells. A ...

Setting [5] is: 0, 1, 10, or 100 µM GSK-LSD1, Figure 5E.

With `c1ccc([C@@H]2C[C@H]2NC2CCNCC2)cc1` [GSK‐LSD1], the “KLLN mRNA level” value in the assay with KLLN [1] is reported as “significant upregulation”. Further, the “KLLN level, concentration dependence” value in the assay on KLLN [2] (setting [5]) was “increased the levels of H3K4me1 and KLLN in a concentration‐dependent manner”. For the same compound, the KLLN protein level result in the assay on KLLN [2] (Western blot, concentration not given, Figure 4F) was “significant upregulation”. Also, the “H3K4me1 level, concentration dependence” value in the assay on H3K4me1 (setting [5]) was “increased the levels of H3K4me1 and KLLN in a concentration‐dependent manner”. Besides, in the assay on H3K4me1 (vs vehicle, concentration not given, Figure 5P), the “H3K4me1 level in Co-IP experiment” value is recorded as “increased H3K4me1 level”. Moreover, in the assay on SW1990 cells [3], the proliferation entry is reported as “significantly inhibited”. The “xenograft size compared to control mice” value in the assay with SW1990‐luc xenografts is listed as “significantly smaller sizes of SW1990‐luc xenografts”. For the same compound, the “EBF2 co-immunoprecipitated with H3K4me1” value in the assay on EBF2 (H3K4me1 antibodies) was “co‐immunoprecipitated more EBF2”. Further, the EBF2 expression result in the assay on EBF2 (concentration not given) is on record as “without affect EBF2 expression”. Moreover, the “tumor-suppressive phenotype of GSK-LSD1 on knockdown of KLLN” value in the assay on SW1990 cells [4] is reported as “markedly attenuated”. Moreover, in the assay on KDM1A/LSD1, the “H3K4me1 level via blocking of KDM1A/LSD1” value is listed as “can increase H3K4me1 level” and the “inhibition of KDM1A/LSD1, in words” value is “selective inhibitor of KDM1A/LSD1”.
